Data published in US6461997B1, “Triazole sulfones having herbicidal activity” (Monsanto Technology LLC, priority 1999, dated 2002).

Assays:
[1] = tested on: AEGCY (jointed goatgrass); test: Pre-plant incorporated (PPI) herbicidal activity, cool season; assay type: in vivo, Aegilops cylindrica; details: for PPI activity GR80, AEGCY: pre-plant incorporated, lowest tested rate with 80% or greater inhibition, about 14 days
Description: (§1) In another set of tests, the pre-plant incorporated (PPI) activity of compounds of this invention was evaluated on the same species as for the pre-emergence tests described above. In the PPI tests the following procedure, designed to simulate PPI application, was used.
(§2) A pre-prepared topsoil mixture (described above) was placed in a pot and compacted to a depth of 1.0 to 1.25 cm from the top of the pot. Seeds of each of several monocotyledonous and dicotyledonous annual plant species were placed on top of the soil. A sufficient quantity of soil to cover the seeds and level fill the pot was weighed into an open container. A known amount of the test compound was dissolved or suspended in an organic solvent and applied by spraying to this cover soil. The cover soil was thoroughly mixed to distribute the test compound throughout the cover soil, and was then applied as a cover layer over the seeds. Untreated soil was used as a cover layer for control pots. After treatment the plants were placed in a greenhouse where they received 0.64 cm of overhead irrigation. All subsequent watering consisted of a light overhead mist and/or subirrigation as needed for germination and growth. Tables 9 and 10 below relate to warm season plant species which were placed after pre-emergence treatment in a greenhouse with a 30/21° C. day/night temperature regime. Tables 11 and 12 below relates to cool season plant species placed after pre-emergence treatment in a greenhouse or growth chamber with an 18/13° C. day/night temperature regime. Only the compounds of Examples 1, 6, 8, 11, 13 and 15-20 were included in PPI tests.
(§3) Approximately 14 days after planting and treating, the plants were observed and herbicidal efficacy recorded as percent inhibition by comparison with untreated plants.

[2] = tested on: SORHA (johnsongrass (seedling)); test: Pre-plant incorporated (PPI) herbicidal activity, warm season; assay type: in vivo, Sorghum halepense; details: for inhibition at 10 g/ha / inhibition at 30 g/ha / inhibition at 100 g/ha / inhibition at 300 g/ha / inhibition at 900 g/ha: Sorghum halepense, read-out: Percent inhibition SORHA; for inhibition at 10 g/ha / inhibition at 30 g/ha / inhibition at 100 g/ha / inhibition at 300 g/ha / inhibition at 900 g/ha / Percent inhibition SORHA: PPI application; for PPI activity GR80, SORHA: pre-plant incorporated, lowest tested rate with 80% or greater inhibition, about 14 days
Description: as §1, §2, §3

LOLMG (annual ryegrass) = test: Post-emergence herbicidal activity, cool season; assay type: in vivo, Lolium multiflorum; details: abraded plants sprayed at 300, 100, 30 and 10 g/ha; about 14 days after treatment
Description: In another set of tests, the post-emergence activity of compounds of this invention was evaluated on the cool season species listed above. The following procedure was used.
A pre-prepared topsoil mixture (described above) was placed in a pot and compacted to a depth of 1.0 to 1.25 cm from the top of the pot. Seeds of each of several monocotyledonous and dicotyledonous annual plant species were placed on top of the soil. The seeds were covered with a mixture of 50% topsoil and 50% Rediearth™ in sufficient quantity to level-fill the pots. The pots were then placed on a greenhouse bench and subirrigated as needed.
When plants growing from the seeds had emerged and reached a suitable growth stage for post-emergence treatment, typically 9 to 14 days after planting, above-ground parts of the plants were subjected to a pre-treatment involving abrasion to create greater opportunity for foliar uptake of subsequently applied compounds. Abrasion was performed using garnet 200w particles applied with a Sears Craftsman hand-held sandblaster operated at approximately 850 kPa (50 psig) pressure.
A known amount of each test compound dissolved or suspended in an appropriate organic solvent was diluted with a 50:50 mix of acetone and water and applied to the plants by spraying with a standard spray nozzle in a spray volume of […] at a spray pressure of 511 kPa (30 psig). Only the compounds of Examples 1, 8-15 and 17-22 were included in post-emergence tests. Application rates for these compounds were 300, 100, 30 and 10 g/ha. Control plants were abraded but not sprayed.
After treatment the plants were placed in a greenhouse with an 18/13° C. day/night temperature regime and were subsequently watered as needed for growth. Approximately 14 days after treatment, the plants were observed and herbicidal efficacy recorded as percent inhibition by comparison with control plants. GR80 values were assigned for each compound as described above for the pre-emergence tests.

POAAN (annual bluegrass) = test: Pre-plant incorporated (PPI) herbicidal activity, cool season; assay type: in vivo, Poa annua; details: weed, PPI application
Description: as §1, §2, §3

[3] = tested on: AGSST (creeping bentgrass); test: Pre-emergence herbicidal activity, cool season; assay type: in vivo, Agrostis stolonifera; details: GR80 = lowest tested rate (300, 100, 30, 10 g/ha) with 80% or greater inhibition; approx. 14 days after treating; 18/13° C.
Procedure, shortened: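 GR80 values derive from percent inhibition relative to untreated plants, read roughly 14 days after sowing and pre-emergence soil-surface treatment (compound in 50:50 acetone/water; rates typically 10, 30, 100, 300 g/ha). Warm-season weeds grew at 30/21° C day/night, cool-season ones at 18/13° C; an asterisk marks activity without reaching 80% at the highest rate.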

SETFA (giant foxtail) = test: Pre-emergence herbicidal activity, warm season; assay type: in vivo, Setaria faberi; details: for Pre-emergence activity (GR80) SETFA: GR80 = lowest tested rate (300, 100, 30, 10 g/ha) with 80% or greater inhibition, approx. 14 days after treating, 30/21° C.; for inhibition at 10 g/ha / inhibition at 30 g/ha / inhibition at 100 g/ha / inhibition at 300 g/ha / inhibition at 900 g/ha: Setaria faberi, pre-emergence application, read-out: Percent inhibition, weed SETFA
Procedure, shortened: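 Seeds sown in sterilised fertilised topsoil received surface-applied compound in 50:50 acetone/water, typically at 300, 100, 30 and 10 g/ha, then greenhouse-grown at 30/21° C (warm-season species) or 18/13° C (cool-season species). Percent inhibition versus untreated plants was scored at about 14 days, giving GR80; an asterisk marks activity short of 80% at the top rate.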

[4] = weed, PPI application, 100 g/ha
[5] = weed, PPI application, 300 g/ha
[6] = weed, PPI application, 900 g/ha

| SMILES | PPI activity GR80, AEGCY [1] | PPI activity GR80, SORHA [2] [g/ha] | Post-emergence activity GR80, LOLMG (LOLMG (annual ryegrass)) | Pre-emergence activity (GR80) AGSST [3] [g/ha] | Pre-emergence activity (GR80) SETFA (SETFA (giant foxtail)) | Percent inhibition AEGCY ([1]; weed, PPI application, 30 g/ha) [%] | Percent inhibition AEGCY [1, 4] [%] | Percent inhibition AEGCY [1, 5] [%] | Percent inhibition AEGCY [1, 6] [%] | Percent inhibition SORHA ([2]; 30 g/ha) [%] | Percent inhibition SORHA ([2]; 100 g/ha) [%] | Percent inhibition SORHA ([2]; 300 g/ha) [%] | Percent inhibition SORHA ([2]; 900 g/ha) [%] | Percent inhibition POAAN (POAAN (annual bluegrass); 30 g/ha) [%] | Percent inhibition POAAN (POAAN (annual bluegrass); 100 g/ha) [%] | Percent inhibition POAAN (POAAN (annual bluegrass); 300 g/ha) [%] | Percent inhibition POAAN (POAAN (annual bluegrass); 900 g/ha) [%] | also measured |
| --- | --- | --- | --- | --- | --- | --- | --- | --- | --- | --- | --- | --- | --- | --- | --- | --- | --- | --- |
| CCN(CC)C(=O)n1cnc(S(=O)(=O)C(F)(F)Br)n1 [Example 1, 3-(bromodifluoromethylsulfonyl)-1-(N,N-diethylcarbamoyl)-1,2,4-triazole] | [empty] | 30 | [empty] | 30 | 100 g/ha | – | – | – | – | – | – | – | – | – | – | – | – | inhibition at 30 g/ha ([1]; Aegilops cylindrica, weed, PPI application, 30 g/ha, read-out: Percent inhibition AEGCY): 0%; inhibition at 100 g/ha ([1]; Aegilops cylindrica, weed, PPI application, 100 g/ha, read-out: Percent inhibition AEGCY): 0%; inhibition at 300 g/ha ([1]; Aegilops cylindrica, weed, PPI application, 300 g/ha, read-out: Percent inhibition AEGCY): 40%; inhibition at 900 g/ha ([1]; Aegilops cylindrica, weed, PPI application, 900 g/ha, read-out: Percent inhibition AEGCY): 60%; inhibition at 10 g/ha ([2]; 10 g/ha): 70%; inhibition at 30 g/ha ([2]; 30 g/ha): 50%; inhibition at 100 g/ha ([2]; 100 g/ha): 100%; inhibition at 300 g/ha ([2]; 300 g/ha): 100%; inhibition at 900 g/ha ([2]; 900 g/ha): 100%; inhibition at 30 g/ha (POAAN (annual bluegrass); Poa annua, 30 g/ha, read-out: Percent inhibition POAAN): 90%; inhibition at 100 g/ha (POAAN (annual bluegrass); Poa annua, 100 g/ha, read-out: Percent inhibition POAAN): 99%; inhibition at 300 g/ha (POAAN (annual bluegrass); Poa annua, 300 g/ha, read-out: Percent inhibition POAAN): 100%; inhibition at 900 g/ha (POAAN (annual bluegrass); Poa annua, 900 g/ha, read-out: Percent inhibition POAAN): 100%; inhibition at 10 g/ha (SETFA (giant foxtail)): 0%; inhibition at 30 g/ha (SETFA (giant foxtail)): 0%; inhibition at 100 g/ha (SETFA (giant foxtail)): 40%; inhibition at 300 g/ha (SETFA (giant foxtail)): 100%; inhibition at 900 g/ha (SETFA (giant foxtail)): 100% |
| CCN(CC)C(=O)n1cnc(S(=O)(=O)C(F)(F)C(F)(F)SC)n1 [Example 14] | – | – | [empty] | 30 | 100 g/ha | – | – | – | – | – | – | – | – | – | – | – | – | – |
| CCN(CC)C(=O)n1cnc(S(=O)(=O)C(F)(F)F)n1 [Example 2] | – | – | – | 30 | 100 g/ha | 0 | 20 | 20 | 70 | 70 | 80 | 100 | 100 | 80 | 100 | 100 | 100 | – |
| CCN(CC)C(=O)n1cnc(S(=O)(=O)C(F)(F)C(F)F)n1 [Example 16] | 300 g/ha | 10 | – | 30 | 30 g/ha | 0 | 0 | 20 | 60 | 70 | 100 | 100 | 100 | 50 | 65 | 100 | 100 | Percent inhibition AEGCY ([1]; weed, PPI application, 10 g/ha): 0%; Percent inhibition SORHA ([2]; 10 g/ha): 0%; Percent inhibition POAAN (POAAN (annual bluegrass); 10 g/ha): 20% |
| CCN(CC)C(=O)n1cnc(S(=O)(=O)C(F)(F)C(F)(F)Br)n1 [Example 4] | – | – | – | 10 | 30 g/ha | 0 | 30 | 50 | 30 | 60 | 100 | 100 | 100 | 95 | 75 | 100 | 100 | – |
| CCN(CC)C(=O)n1cnc(S(=O)(=O)C(F)(F)SCC(=O)OC)n1 [Example 11] | [empty] | 300 | [empty] | – | – | 0 | 0 | 0 | 10 | 0 | 30 | 80 | 100 | 0 | 0 | 0 | 70 | Percent inhibition AEGCY ([1]; weed, PPI application, 10 g/ha): 0%; Percent inhibition SORHA ([2]; 10 g/ha): 0%; Percent inhibition POAAN (POAAN (annual bluegrass); 10 g/ha): 0% |
| CCN(CC)C(=O)n1cnc(S(=O)(=O)C(F)F)n1 [Example 15, 1-(N,N-diethylcarbamoyl)-3-(difluoromethylsulfonyl)-1,2,4-triazole] | [empty] | 30 | [empty] | – | 100 g/ha | – | – | – | – | – | – | – | – | – | – | – | – | inhibition at 10 g/ha ([2]; 10 g/ha): 40%; inhibition at 30 g/ha ([2]; 30 g/ha): 20%; inhibition at 100 g/ha ([2]; 100 g/ha): 100%; inhibition at 300 g/ha ([2]; 300 g/ha): 100%; inhibition at 900 g/ha ([2]; 900 g/ha): 95%; inhibition at 10 g/ha (SETFA (giant foxtail)): 0%; inhibition at 30 g/ha (SETFA (giant foxtail)): 0%; inhibition at 100 g/ha (SETFA (giant foxtail)): 99%; inhibition at 300 g/ha (SETFA (giant foxtail)): 70%; inhibition at 900 g/ha (SETFA (giant foxtail)): 100% |
| CCN(CC)C(=O)n1cnc(S(=O)(=O)C(F)(F)Cl)n1 [Example 3] | – | – | – | 30 | 100 g/ha | 0 | 50 | 40 | 90 | 99 | 100 | 100 | 100 | 70 | 100 | 100 | 100 | – |
| CCN(CC)C(=O)n1cnc(S(=O)(=O)C(F)(F)C(=O)c2ccccc2)n1 [Example 6] | [empty] | 100 | – | 100 | * (activity observed, at least at highest rate, but <80% inhibition) | – | – | – | – | – | – | – | – | – | – | – | – | – |
